Assay results: PubChem BioAssay AID1918930 (Molecular Pharmacology Branch, DTP, NCI, 2023)
Calls of active or inactive are those of the source. The calls were made as follows: active = viability on the fitted dose curve at most 10% of control; inactive = the rest.

Test system: 233499-124-R-J3-PDC complex spheroid viability, % test/control
Assay: Anticancer human tumor 233499-124-R-J3-PDC patient-derived colon adenocarcinoma cell line growth inhibition
Settings: for IC50: curve of first compound; for viability, T/C: stronger effect = lower value
Procedure, shortened: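 Drug combinations with the LSD1 inhibitor iadademstat tested on tumor cells co-cultured as spheroids with endothelial cells and mesenchymal stem cells. Concentrations descended in half-log increments from clinical Cmax or 10 microM.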

[1] = second compound 0.1 µM, first compound 0.0316 µM
[2] = second compound 0.1 µM, first compound 0.1 µM
[3] = second compound 0.316 µM, first compound 0.0316 µM
[4] = second compound 0.316 µM, first compound 0.1 µM
[5] = second compound 1 µM, first compound 0.0316 µM
[6] = second compound 1 µM, first compound 0.1 µM
[7] = second compound 3.16 µM, first compound 0.0316 µM
[8] = second compound 3.16 µM, first compound 0.1 µM
[9] = second compound 10 µM, first compound 0.0316 µM
[10] = second compound 10 µM, first compound 0.1 µM
[11] = second compound 0.1 µM, first compound 0.00949 µM
[12] = second compound 0.1 µM, first compound 0.03 µM
[13] = second compound 0.1 µM, first compound 0.0949 µM
[14] = second compound 0.1 µM, first compound 0.3 µM
[15] = second compound 0.1 µM, first compound 0.949 µM
[16] = second compound 0.1 µM, first compound 3 µM
[17] = second compound 0.316 µM, first compound 0.00949 µM
[18] = second compound 0.316 µM, first compound 0.03 µM
[19] = second compound 0.316 µM, first compound 0.0949 µM
[20] = second compound 0.316 µM, first compound 0.3 µM
[21] = second compound 0.316 µM, first compound 0.949 µM
[22] = second compound 0.316 µM, first compound 3 µM
[23] = second compound 1 µM, first compound 0.00949 µM
[24] = second compound 1 µM, first compound 0.03 µM
[25] = second compound 1 µM, first compound 0.0949 µM
[26] = second compound 1 µM, first compound 0.3 µM
[27] = second compound 1 µM, first compound 0.949 µM
[28] = second compound 1 µM, first compound 3 µM
[29] = second compound 3.16 µM, first compound 0.00949 µM
[30] = second compound 3.16 µM, first compound 0.03 µM
[31] = second compound 3.16 µM, first compound 0.0949 µM
[32] = second compound 3.16 µM, first compound 0.3 µM
[33] = second compound 3.16 µM, first compound 0.949 µM
[34] = second compound 3.16 µM, first compound 3 µM
[35] = second compound 10 µM, first compound 0.00949 µM
[36] = second compound 10 µM, first compound 0.03 µM
[37] = second compound 10 µM, first compound 0.0949 µM
[38] = second compound 10 µM, first compound 0.3 µM
[39] = second compound 10 µM, first compound 0.949 µM
[40] = second compound 10 µM, first compound 3 µM
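For IC50 in this document: spheroids exposed to agents for one week before readout.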
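For viability, T/C in this document: spheroids exposed to agents for one week before readout.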

CC1(C)CCC(CN2CCN(c3ccc(C(=O)NS(=O)(=O)c4ccc(NCC5CCOCC5)c([N+](=O)[O-])c4)c(Oc4cnc5[nH]ccc5c4)c3)CC2)=C(c2ccc(Cl)cc2)C1 + NC1CCC(NC2CC2c2ccccc2)CC1
IC50 (second compound 0.1 µM): 7560 nM
IC50 (second compound 0.316 µM): 6460 nM
IC50 (second compound 1 µM): 9010 nM
IC50 (second compound 3.16 µM): 7550 nM
IC50 (second compound 10 µM): 7290 nM
viability, T/C [1]: 119%
viability, T/C [2]: 127%
viability, T/C (second compound 0.1 µM, first compound 0.316 µM): 132%
viability, T/C (second compound 0.1 µM, first compound 1 µM): 116%
viability, T/C (second compound 0.1 µM, first compound 3.16 µM): 143%
viability, T/C (second compound 0.1 µM, first compound 10 µM): 25.2%
viability, T/C [3]: 111%
viability, T/C [4]: 109%
viability, T/C (second compound 0.316 µM, first compound 0.316 µM): 114%
viability, T/C (second compound 0.316 µM, first compound 1 µM): 105%
viability, T/C (second compound 0.316 µM, first compound 3.16 µM): 132%
viability, T/C (second compound 0.316 µM, first compound 10 µM): 10.5%
viability, T/C [5]: 95.7%
viability, T/C [6]: 91.2%
viability, T/C (second compound 1 µM, first compound 0.316 µM): 97.8%
viability, T/C (second compound 1 µM, first compound 1 µM): 104%
viability, T/C (second compound 1 µM, first compound 3.16 µM): 118%
viability, T/C (second compound 1 µM, first compound 10 µM): 44.8%
viability, T/C [7]: 88.8%
viability, T/C [8]: 99.8%
viability, T/C (second compound 3.16 µM, first compound 0.316 µM): 83%
viability, T/C (second compound 3.16 µM, first compound 1 µM): 98.9%
viability, T/C (second compound 3.16 µM, first compound 3.16 µM): 96.6%
viability, T/C (second compound 3.16 µM, first compound 10 µM): 36%
viability, T/C [9]: 87.4%
viability, T/C [10]: 86.5%
viability, T/C (second compound 10 µM, first compound 0.316 µM): 85.2%
viability, T/C (second compound 10 µM, first compound 1 µM): 93.1%
viability, T/C (second compound 10 µM, first compound 3.16 µM): 101%
viability, T/C (second compound 10 µM, first compound 10 µM): 34.5%

CCN(c1cc(-c2ccc(CN3CCOCC3)cc2)cc(C(=O)NCc2c(C)cc(C)[nH]c2=O)c1C)C1CCOCC1 + NC1CCC(NC2CC2c2ccccc2)CC1
IC50 (second compound 0.1 µM): > 3000 nM
IC50 (second compound 0.316 µM): > 3000 nM
IC50 (second compound 1 µM): > 3000 nM
IC50 (second compound 3.16 µM): > 3000 nM
IC50 (second compound 10 µM): > 3000 nM
viability, T/C [11]: 99.9%
viability, T/C [12]: 117%
outcome [13]: inactive
viability, T/C [14]: 121%
viability, T/C [15]: 101%
viability, T/C [16]: 126%
viability, T/C [17]: 101%
viability, T/C [18]: 110%
viability, T/C [19]: 113%
viability, T/C [20]: 102%
viability, T/C [21]: 118%
viability, T/C [22]: 135%
viability, T/C [23]: 80.9%
viability, T/C [24]: 77.9%
viability, T/C [25]: 80.4%
viability, T/C [26]: 96.2%
viability, T/C [27]: 88.5%
viability, T/C [28]: 122%
viability, T/C [29]: 75.5%
viability, T/C [30]: 95.2%
viability, T/C [31]: 85.8%
viability, T/C [32]: 87.4%
viability, T/C [33]: 76.2%
viability, T/C [34]: 104%
viability, T/C [35]: 86%
viability, T/C [36]: 68%
viability, T/C [37]: 69.4%
viability, T/C [38]: 74.9%
viability, T/C [39]: 83.5%
viability, T/C [40]: 90.2%

Cn1ncnc1C1c2n[nH]c(=O)c3cc(F)cc(c23)NC1c1ccc(F)cc1 (stereo not given) + NC1CCC(NC2CC2c2ccccc2)CC1
IC50 (second compound 0.1 µM): > 100 nM
IC50 (second compound 0.316 µM): > 100 nM
IC50 (second compound 1 µM): > 100 nM
IC50 (second compound 3.16 µM): > 100 nM
IC50 (second compound 10 µM): > 100 nM
viability, T/C (second compound 0.1 µM, first compound 0.000316 µM): 103%
viability, T/C (second compound 0.1 µM, first compound 0.001 µM): 99.2%
viability, T/C (second compound 0.1 µM, first compound 0.00316 µM): 94.4%
viability, T/C (second compound 0.1 µM, first compound 0.01 µM): 104%
viability, T/C [1]: 96.3%
viability, T/C [2]: 77.8%
viability, T/C (second compound 0.316 µM, first compound 0.000316 µM): 113%
viability, T/C (second compound 0.316 µM, first compound 0.001 µM): 110%
viability, T/C (second compound 0.316 µM, first compound 0.00316 µM): 100%
viability, T/C (second compound 0.316 µM, first compound 0.01 µM): 102%
viability, T/C [3]: 106%
viability, T/C [4]: 110%
viability, T/C (second compound 1 µM, first compound 0.000316 µM): 83.8%
viability, T/C (second compound 1 µM, first compound 0.001 µM): 87.1%
viability, T/C (second compound 1 µM, first compound 0.00316 µM): 78.1%
viability, T/C (second compound 1 µM, first compound 0.01 µM): 87.5%
viability, T/C [5]: 70.7%
viability, T/C [6]: 97%
viability, T/C (second compound 3.16 µM, first compound 0.000316 µM): 83%
viability, T/C (second compound 3.16 µM, first compound 0.001 µM): 85.7%
viability, T/C (second compound 3.16 µM, first compound 0.00316 µM): 83.6%
viability, T/C (second compound 3.16 µM, first compound 0.01 µM): 81.6%
viability, T/C [7]: 76.1%
viability, T/C [8]: 79.1%
viability, T/C (second compound 10 µM, first compound 0.000316 µM): 75.7%
viability, T/C (second compound 10 µM, first compound 0.001 µM): 73.4%
viability, T/C (second compound 10 µM, first compound 0.00316 µM): 73.4%
viability, T/C (second compound 10 µM, first compound 0.01 µM): 80.9%
viability, T/C [9]: 65.1%
viability, T/C [10]: 68.5%

NS(=O)(=O)OCC1CC(n2ccc3c(NC4CCc5ccccc54)ncnc32)CC1O (stereo not given) + NC1CCC(NC2CC2c2ccccc2)CC1
IC50 (second compound 0.1 µM): 108 nM
IC50 (second compound 0.316 µM): 88.8 nM
IC50 (second compound 1 µM): 47.5 nM
IC50 (second compound 3.16 µM): 49.6 nM
IC50 (second compound 10 µM): 54.1 nM
viability, T/C [11]: 106%
viability, T/C [12]: 95.7%
viability, T/C [13]: 55.9%
viability, T/C [14]: 9.71%
viability, T/C [15]: 11.5%
viability, T/C [16]: 9.68%
viability, T/C [17]: 90.8%
viability, T/C [18]: 70%
viability, T/C [19]: 53.4%
viability, T/C [20]: 9.15%
viability, T/C [21]: 6.44%
viability, T/C [22]: 7.69%
viability, T/C [23]: 90.7%
viability, T/C [24]: 55.9%
viability, T/C [25]: 43.2%
viability, T/C [26]: 12%
viability, T/C [27]: 11.3%
viability, T/C [28]: 6.96%
viability, T/C [29]: 102%
viability, T/C [30]: 62.9%
viability, T/C [31]: 34.5%
viability, T/C [32]: 10.7%
viability, T/C [33]: 7.04%
viability, T/C [34]: 1.91%
viability, T/C [35]: 89.9%
viability, T/C [36]: 66.2%
viability, T/C [37]: 33.4%
viability, T/C [38]: 19%
viability, T/C [39]: 5.43%
viability, T/C [40]: 3.7%

Nc1ncn(C2CC(O)C(CO)S2)c(=O)n1 (stereo not given) + NC1CCC(NC2CC2c2ccccc2)CC1
IC50 (second compound 0.1 µM): 123 nM
IC50 (second compound 0.316 µM): 76.1 nM
IC50 (second compound 1 µM): 56.9 nM
IC50 (second compound 3.16 µM): 73.9 nM
IC50 (second compound 10 µM): 63.2 nM
viability, T/C (second compound 0.1 µM, first compound 0.000949 µM): 110%
viability, T/C (second compound 0.1 µM, first compound 0.003 µM): 85.6%
viability, T/C [11]: 113%
viability, T/C [12]: 88.1%
viability, T/C [13]: 61.4%
viability, T/C [14]: 13.1%
viability, T/C (second compound 0.316 µM, first compound 0.000949 µM): 113%
viability, T/C (second compound 0.316 µM, first compound 0.003 µM): 107%
viability, T/C [17]: 117%
viability, T/C [18]: 93.9%
viability, T/C [19]: 39.7%
viability, T/C [20]: 11.6%
viability, T/C (second compound 1 µM, first compound 0.000949 µM): 94.3%
viability, T/C (second compound 1 µM, first compound 0.003 µM): 88.6%
viability, T/C [23]: 91.2%
viability, T/C [24]: 76.8%
viability, T/C [25]: 28.6%
viability, T/C [26]: 27.4%
viability, T/C (second compound 3.16 µM, first compound 0.000949 µM): 97.4%
viability, T/C (second compound 3.16 µM, first compound 0.003 µM): 99.9%
viability, T/C [29]: 92%
viability, T/C [30]: 89%
viability, T/C [31]: 39.2%
viability, T/C [32]: 24.9%
viability, T/C (second compound 10 µM, first compound 0.000949 µM): 86.6%
viability, T/C (second compound 10 µM, first compound 0.003 µM): 82.4%
viability, T/C [35]: 86.8%
viability, T/C [36]: 82.8%
viability, T/C [37]: 32.1%
viability, T/C [38]: 23.6%
